Values joined by “and” are separate entries in the source; they are usually repeats but may differ in a detail not shown here. Equal entries are not always repeated.
Target: WT Kv11.1 (Homo sapiens, UniProt Q12809)
Test: Whole-cell patch-clamp electrophysiology, drug in bath solution, WT
Assay type: cell-based
Design: expressed in transfected cells; Activation tail currents / Steady-state currents / Time constants of activation (τ): unit not given here
Conditions: for Steady-state currents / Activation tail currents / peak tail currents (I-V relationship): WT, individual cells; for Steady-state currents / Activation tail currents: evacetrapib 15 μmol/L; for Activation tail currents: tail at –40 mV; for peak tail currents (I-V relationship): evacetrapib 15 μmol/L in bath; for Figure 4B value per cell vs Voltage (mV) / Figure 4D value per cell vs Voltage (mV) / Figure 5E value per cell vs Voltage (mV) / Figure 5F value per cell vs Voltage (mV): individual replicates
From the text: Peak stea dy-sta te current was
Tail current was fit with a […]

Sequence of WT Kv11.1 (Q12809 whole entry): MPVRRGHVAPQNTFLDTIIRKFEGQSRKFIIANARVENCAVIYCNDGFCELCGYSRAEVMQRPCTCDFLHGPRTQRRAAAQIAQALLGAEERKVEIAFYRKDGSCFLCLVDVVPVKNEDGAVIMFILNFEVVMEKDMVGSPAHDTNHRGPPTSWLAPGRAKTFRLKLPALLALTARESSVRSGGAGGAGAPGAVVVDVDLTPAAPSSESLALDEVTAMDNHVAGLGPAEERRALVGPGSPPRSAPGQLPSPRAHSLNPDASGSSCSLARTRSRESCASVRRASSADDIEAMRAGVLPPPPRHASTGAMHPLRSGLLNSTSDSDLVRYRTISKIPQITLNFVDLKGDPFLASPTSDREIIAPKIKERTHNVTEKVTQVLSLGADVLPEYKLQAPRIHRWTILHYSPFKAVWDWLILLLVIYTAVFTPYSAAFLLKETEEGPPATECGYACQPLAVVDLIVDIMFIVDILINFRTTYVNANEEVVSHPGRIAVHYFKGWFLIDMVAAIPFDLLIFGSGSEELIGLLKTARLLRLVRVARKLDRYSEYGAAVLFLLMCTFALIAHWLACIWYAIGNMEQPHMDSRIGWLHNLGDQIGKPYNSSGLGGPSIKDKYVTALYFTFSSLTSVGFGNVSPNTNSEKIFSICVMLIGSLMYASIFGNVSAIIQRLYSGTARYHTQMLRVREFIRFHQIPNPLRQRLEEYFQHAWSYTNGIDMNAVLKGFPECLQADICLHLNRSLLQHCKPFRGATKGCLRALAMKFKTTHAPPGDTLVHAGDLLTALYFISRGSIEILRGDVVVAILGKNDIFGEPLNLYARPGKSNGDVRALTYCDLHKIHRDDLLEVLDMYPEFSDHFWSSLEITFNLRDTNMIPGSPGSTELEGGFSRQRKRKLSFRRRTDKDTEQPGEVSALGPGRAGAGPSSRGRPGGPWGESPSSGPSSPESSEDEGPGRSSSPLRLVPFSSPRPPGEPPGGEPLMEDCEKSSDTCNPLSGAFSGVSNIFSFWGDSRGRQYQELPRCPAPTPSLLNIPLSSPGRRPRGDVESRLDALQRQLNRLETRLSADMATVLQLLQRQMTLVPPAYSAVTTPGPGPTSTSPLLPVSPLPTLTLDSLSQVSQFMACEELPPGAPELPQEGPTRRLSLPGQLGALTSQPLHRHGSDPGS

Which results are given for `Cc1cc(C)c2c(c1)[C@@H](N(Cc1cc(C(F)(F)F)cc(C(F)(F)F)c1)c1nnn(C)n1)CCCN2C[C@H]1CC[C@H](C(=O)O)CC1` [Evacetrapib, evacetrapib]?
Steady-state currents (Voltage (mV) 30): 13.8134 and 15.2335 and 30.8124 and 15.3878 and 19.0656 and 16.8628 and 32.7435 and 42.003 and 14.0184 and 26.2752 and 15.6099; Activation tail currents (Voltage (mV) 30): 78.4549 and 49.9729 and 64.1927 and 68.2058 and 57.9705 and 130.879 and 57.8601 and 56.5419 and 81.1964 and 126.769 and 58.6074; peak tail currents (I-V relationship) (Voltage (mV) 40): 49.0637 and 36.1043 and 40.7824 and 44.6525 and 42.1084 and 30.3986 and 12.7193 and 9.659 and 9.23 and 5.4472; Steady-state currents (Voltage (mV) 40): 8.152; Activation tail currents (Voltage (mV) 40): 80.9925 and 51.9387 and 63.2186 and 69.4712 and 59.5512 and 133.68 and 59.6841 and 61.1492 and 78.5713 and 128.32 and 57.9252; peak tail currents (I-V relationship) (Voltage (mV) -10): 121.614 and 76.2939 and 89.915 and 120.029 and 102.147 and 69.7054 and 87.5927 and 30.4321 and 56.9661 and 25.473; Steady-state currents (Voltage (mV) -10): 39.4793 and 7.634 and 11.4994 and 5.42 and 5.3991 and 14.8809 and 6.707 and 15.12 and 14.6222 and 35.1249 and 21.6894; peak tail currents (I-V relationship) (Voltage (mV) -20): 131.419 and 84.709 and 100.756 and 135.254 and 114.81 and 74.7542 and 102.167 and 37.4476 and 77.7339 and 32.9646; Steady-state currents (Voltage (mV) -20): 32.9524 and 3.6817 and 4.46 and 2.8711 and 2.362 and 6.4831 and 3.43 and 7.428 and 4.804 and 18.1098 and 9.611; Activation tail currents (Voltage (mV) -20): 15.0143; peak tail currents (I-V relationship) (Voltage (mV) -30): 132.826 and 89.7021 and 107.215 and 142.287 and 124.198 and 74.8335 and 106.966 and 44.1713 and 97.481 and 39.1658; Steady-state currents (Voltage (mV) -30): 26.2905 and 2.297 and 2.248 and 2.097 and 1.35 and 2.687 and 2.39 and 4.071 and 1.181 and 8.895 and 2.9695; Activation tail currents (Voltage (mV) -30): 7.534 and 3.411 and 6.987 and 3.037 and 3.42 and 5.381 and 4.729 and 3.695 and 5.67 and 20.6644 and 10.955; peak tail currents (I-V relationship) (Voltage (mV) -40): 123.894 and 91.9717 and 106.938 and 138.26 and 129.161 and 68.3308 and 100.665 and 47.0658 and 110.15 and 41.9127; Steady-state currents (Voltage (mV) -40): 22.4974 and 1.925 and 1.695 and 1.5162 and 1.5185 and 1.713 and 2.12 and 2.908 and -0.105 and 5.52 and 1.124; Activation tail currents (Voltage (mV) -40): 4.388 and 2.505 and 3.124 and 2.236 and 2.355 and 2.6537 and 2.736 and 2.76 and 1.5226 and 9.99 and 3.792; peak tail currents (I-V relationship) (Voltage (mV) -50): 102.384 and 84.1154 and 96.6044 and 116.609 and 127.372 and 55.6691 and 86.621 and 46.497 and 109.939 and 41.3172; Steady-state currents (Voltage (mV) -50): 1.688 and 1.554 and 1.143 and 1.161 and 1.645 and 1.646 and 2.0814 and 1.85 and -0.735 and 4.1055 and 0.8628; Activation tail currents (Voltage (mV) -50): 3.7007 and 2.582 and 2.251 and 2.025 and 2.032 and 1.953 and 2.466 and 2.6 and 0.4988 and 7.116 and 1.746; Activation tail currents (Voltage (mV) -60): 4.229 and 3.296 and 2.251 and 1.856 and 2 and 1.917 and 2.331 and 2.577 and 0.3413 and 6.751 and 1.786; Figure 4B value per cell vs Voltage (mV) (Voltage -10 mV): 14.8044 and 13.7126 and 12.9375 and 13.3319 and 13.3961; Figure 4B value per cell vs Voltage (mV) (Voltage -20 mV): 17.0235 and 15.2047 and 14.605 and 15.0846 and 15.5938; Figure 4D value per cell vs Voltage (mV) (Voltage -30 mV): 15.7269 and 18.6316 and 19.1074 and 18.8344 and 16.9058 and 17.0433 and 17.3545; Figure 4D value per cell vs Voltage (mV) (Voltage -40 mV): 16.5636 and 18.432 and 19.3043 and 18.0397 and 17.6 and 17.7987 and 17.7833 and 17.6688; Figure 4D value per cell vs Voltage (mV) (Voltage -50 mV): 17.1571 and 17.6888 and 17.131 and 15.567 and 16.0065 and 16.8291 and 17.2705 and 17.4541; Figure 5E value per cell vs Voltage (mV) (Voltage -50 mV): 902.031 and 870.108 and 1400.85 and 879.311 and 1017 and 1248.9; Figure 5F value per cell vs Voltage (mV) (Voltage -50 mV): 6388.9 and 7989.38 and 5622.96; Figure 4D value per cell vs Voltage (mV) (Voltage -60 mV): 15.2329 and 15.5388 and 14.7818 and 13.5682 and 12.8587 and 15.0819 and 14.9385 and 15.3669; Figure 5E value per cell vs Voltage (mV) (Voltage -60 mV): 1032.08 and 966.812 and 405; Figure 5F value per cell vs Voltage (mV) (Voltage -60 mV): 3804.89 and 9449.49 and 8793.8 and 3687.69 and 9196.29; Figure 4D value per cell vs Voltage (mV) (Voltage -70 mV): 13.1624 and 13.1509 and 12.2005 and 10.7217 and 10.4496 and 12.0627 and 12.9211 and 13.7327; Figure 5E value per cell vs Voltage (mV) (Voltage -70 mV): 981.118 and 839.618 and 778.428; Figure 5F value per cell vs Voltage (mV) (Voltage -70 mV): 5126.65 and 3642.53 and 2594.13; Figure 4D value per cell vs Voltage (mV) (Voltage -90 mV): 8.355 and 8.669 and 7.114 and 6.058 and 6.564 and 7.143 and 9.871 and 9.491; Figure 5E value per cell vs Voltage (mV) (Voltage -90 mV): 372.839 and 359.851 and 360.592 and 394.825 and 418.114 and 332.621 and 441 and 468.124; Figure 5F value per cell vs Voltage (mV) (Voltage -90 mV): 3977.04 and 1576.1 and 1475.11 and 1269.7 and 1679.13 and 1263.86 and 1827.67 and 3682.76; Figure 4D value per cell vs Voltage (mV) (Voltage -100 mV): 5.9805 and 6.106 and 5.3207 and 4.4265 and 4.931 and 4.972 and 6.757 and 6.876
